In US8916583B2, “Therapeutic compositions for intranasal administration of zolpidem” (Renascence Therapeutics Limited, priority 2012, dated 2014):
Structures can show the parent of a compound that is named as a salt.

How the values were obtained:
[1] = Pharmacokinetic study in beagle dogs; conditions: for CL/F / Rel F(5 mg oral) / Tmax: beagle dogs; for Rel F(5 mg oral): relative to 5 mg oral; for AUC(0-inf) / AUC(0-t) / Cmax / MRT / half-life / Tmax: both, beagle, dog, plasma
Method: Eight beagle dogs (4 male and 4 female) participated in the study. […] Water was given ad libitum throughout the study. Food was provided 4 hours post-dose. Blood samples were collected at pre-dose (0 min) and at 3, 6, 9, 12, 15, 20, 30, 45 minutes; and at 1, 1.5, 2, 3, 4, 6, 8, 24 hours post-dose. After plasma-separation process, the samples were analyzed by a validated LC-MS/MS method.

[2] = cited from earlier work
[3] = system: plasma proteins; conditions: cited from earlier work
[4] = cited from earlier work; remark: listed apart in the source
[5] = system: toad palate; experiment: Nasal ciliotoxicity evaluation, in-situ toad palate model; format: in vivo; set-up: key to Ciliotoxicity: no effect: cilia on the mucosa was intact, dense and beating actively; mild: less than 25% ciliostasis; moderate: cilia was disarranged or only partial cilia left; all cilia lost and apical cell border was severe deformed; conditions: 0.2 ml, 4 h, light microscope 400×
Method: The nasal ciliotoxicity of zolpidem tartrate, solubilizing agents and several nasal solution formulations were investigated using an in-situ toad palate model. Briefly, 0.2 ml test formulations were administrated on a toad palate. […] The mucocilia was examined with a light microscope at enlargements of 400× (n=3˜6). Saline and a typical nasal mucociliary toxic agent—sodium deoxycholatee—were used as a negative and positive control, respectively. Study protocol was illustrated in Table 11, and the degree of ciliotoxicity caused by the test formulations was coarse classified as follows: “no effect”: cilia on the mucosa was intact, dense and beating actively; “mild”: less than 25% ciliostasis; “moderate”: cilia was disarranged or only partial cilia left; “severe”: all cilia lost and apical cell border was severe deformed.

[6] = intranasal administration (ZLP-B01), 1.25 mg/dog
[7] = intranasal administration (ZLP-B01), 2.5 mg/dog
[8] = intranasal administration (ZLP-B01), 5 mg/dog

In the case of `Cc1ccc(-c2nc3ccc(C)cn3c2CC(=O)N(C)C)cc1` [Zolpidem, N,N,6-trimethyl-2-(4-methylphenyl)-imidazo[1,2-a]pyridine-3-acetamide], the CL/F [1, 6] is reported as 110 ± 41 L/h, the “Rel F(5 mg oral)” value [1, 6] is reported as 167% and the CL/F [1, 7] is reported as 144 ± 76 L/h. The “Rel F(5 mg oral)” value [1, 7] was 145%, the CL/F [1, 8] was 181 ± 137 L/h and the “Rel F(5 mg oral)” value [1, 8] was 124%. For the same compound, the CL/F ([1]; oral administration (marketed tablet, Stilnox), 5 mg/dog) was 204 ± 96 L/h, the CL/F ([1]; oral administration (marketed tablet, Stilnox), 10 mg/dog) was 110 ± 69 L/h and the AUC(0-inf) ([1]; inhaled or intranasal, 1.25 mg) was 12.9 ± 5.2 ng·h/mL. It also gave an AUC(0-t) ([1]; inhaled or intranasal, 1.25 mg) of 12.8 ± 5.24 ng·h/mL, a Cmax ([1]; inhaled or intranasal, 1.25 mg) of 13 ± 6.36 ng/mL and an MRT ([1]; inhaled or intranasal, 1.25 mg) of 67.8 ± 10.8 min. The half-life ([1]; inhaled or intranasal, 1.25 mg) was 57 ± 10.8 min, the Tmax ([1]; inhaled or intranasal, 1.25 mg, intranasal administration (ZLP-B01), 1.25 mg/dog) was 8.4 ± 1.8 min and the AUC(0-inf) ([1]; inhaled or intranasal, 2.5 mg) was 22.4 ± 12.1 ng·h/mL. For the same compound, the AUC(0-t) ([1]; inhaled or intranasal, 2.5 mg) was 22.2 ± 12.2 ng·h/mL, the Cmax ([1]; inhaled or intranasal, 2.5 mg) was 22 ± 13.1 ng/mL and the MRT ([1]; inhaled or intranasal, 2.5 mg) was 74.4 ± 49.8 min. The half-life ([1]; inhaled or intranasal, 2.5 mg) was 43.8 ± 13.8 min, the Tmax ([1]; inhaled or intranasal, 2.5 mg, intranasal administration (ZLP-B01), 2.5 mg/dog) was 8.4 ± 4.2 min and the AUC(0-inf) ([1]; inhaled or intranasal, 5 mg) was 38 ± 18.5 ng·h/mL. The AUC(0-t) ([1]; inhaled or intranasal, 5 mg) was 38 ng·h/mL, the Cmax ([1]; inhaled or intranasal, 5 mg) was 33.3 ng/mL and the MRT ([1]; inhaled or intranasal, 5 mg) was 90 ± 19.8 min. The half-life ([1]; inhaled or intranasal, 5 mg) was 68.4 ± 11.4 min, the Tmax ([1]; inhaled or intranasal, 5 mg, intranasal administration (ZLP-B01), 5 mg/dog) was 12.6 min and the Tmax ([1]; inhaled or intranasal, 5 mg, range over dogs, intranasal administration, 5 mg/dog) was 3 to 15 min. It also gave an AUC(0-inf) ([1]; po, 5 mg) of 30.7 ± 16.9 ng·h/mL, an AUC(0-t) ([1]; po, 5 mg) of 30.6 ng·h/mL and a Cmax ([1]; po, 5 mg) of 25.5 ng/mL. The MRT ([1]; po, 5 mg) was 100 ± 27.6 min, the half-life ([1]; po, 5 mg) was 57.6 ± 10.2 min and the Tmax ([1]; po, 5 mg, oral administration (marketed tablet, Stilnox), 5 mg/dog) was 41.4 min. It also gave a Tmax ([1]; po, 5 mg, range over dogs, oral administration, 5 mg/dog) of 19.8 to 120 min, an AUC(0-inf) ([1]; po, 10 mg) of 121 ± 64.6 ng·h/mL and an AUC(0-t) ([1]; po, 10 mg) of 120 ± 64.4 ng·h/mL. The Cmax ([1]; po, 10 mg) was 128 ± 59.7 ng/mL, the MRT ([1]; po, 10 mg) was 79.8 ± 18 min and the half-life ([1]; po, 10 mg) was 59.4 ± 12.6 min. The Tmax ([1]; po, 10 mg, oral administration (marketed tablet, Stilnox), 10 mg/dog) was 25.8 ± 11.4 min, the “time to peak plasma concentrations” value ([2]; after oral doses) was no more than 3 h and the elimination half-life ([2]; in vivo) was “about 2.5 hours”. For the same compound, the absolute bioavailability ([2]; oral, first-pass metabolism) was “about 70%” and the “bound to plasma proteins” value [3] was “about 92%”.

For `Cc1ccc(-c2nc3ccc(C)cn3c2CC(=O)N(C)C)cc1` [Zolpidem tartrate], the aqueous solubility ([4]; at 20° C.) is given as “about 23 mg/ml” and the “solubility in water” value ([4]; water) is given as “slightly soluble”.

For “sodium deoxycholate [1% sodium deoxycholate]”, the Ciliotoxicity [5] was “severe” and the Optical microscopic observation [5] was “no cilia on the mucosa”.
